In one experiment the target is T1, APOL1 G2 (Homo sapiens, UniProt O14791, DEL388-389).
T1 construct: expressed in transfected cells; host or cells: HEK293 T-REx clonal line stably expressing GCaMP6f (HEK T-REx/GCaMP6f/APOL1 G2 K6.3), doxycycline induced
T1 sequence (O14791 with tags, fused parts or gaps DEL388-389): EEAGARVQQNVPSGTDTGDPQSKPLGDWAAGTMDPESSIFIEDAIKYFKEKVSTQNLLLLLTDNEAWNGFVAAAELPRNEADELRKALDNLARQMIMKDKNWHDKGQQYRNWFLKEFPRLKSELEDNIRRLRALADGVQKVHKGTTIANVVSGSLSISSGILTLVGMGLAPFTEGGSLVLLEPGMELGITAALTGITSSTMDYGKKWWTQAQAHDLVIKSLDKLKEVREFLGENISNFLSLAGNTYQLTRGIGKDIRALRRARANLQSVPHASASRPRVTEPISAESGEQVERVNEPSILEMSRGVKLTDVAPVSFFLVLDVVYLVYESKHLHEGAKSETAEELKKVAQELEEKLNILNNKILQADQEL
The experiment can be described thus: APOL1-mediated calcium transport (calcium influx) assay, HEK T-REx/GCaMP6f/APOL1 G2 K6.3 cells, FLIPR TETRA. It counts as cell-based. The following applies: prevention of calcium influx; geometric mean of at least 2 assay runs; † = average of a technical replicate from a single assay run. The method, boiled down: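 A HEK293 T-REx clone stably expressing GCaMP6f had APOL1 G2 induced with doxycycline (20 ng/mL solution added) for 6 h. Cells were then washed into Ca2+-free Tyrode's buffer (pH 7.4) and preincubated with compounds (duplicate 8-point) for 10 min at room temperature. Ca2+ injection to 5 mM final produced FLIPR GCaMP fluorescence, giving AC50 for influx inhibition (geometric mean, ≥2 runs).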

The subject of experiment [1] is HEK293 cells overexpressing APOL1 G2. The experiment can be described thus: APOL1 G2 HEK293 cell rescue assay (reversal of cell death caused by overexpression of APOL1). It counts as cell-based. The settings on record: geometric mean of at least 2 assay runs, † = single assay run. In outline: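 Each compound tested in duplicate wells on one plate per run, with values usually the geometric mean across at least two runs on different days, occasionally from one run only. Read-out: concentration giving half-maximal rescue of APOL1 G2 overexpression-induced death of HEK293 cells.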

Setting [2] is: Homo sapiens, HEK293, HEK293 overexpressing APOL1 G2.

On to `CS(=O)(=O)C1CN(c2ncc(OCCN3CCC4(CC3)C(=O)Nc3ccc(Cl)cc34)cn2)C1` [Compound 302, 5-chloro-1′-(2-{[2-(3-methanesulfonylazetidin-1-yl)pyrimidin-5-yl]oxy}ethyl)-1,2-dihydrospiro[indole-3,4′-piperidin]-2-one], for which the AC50 (in general, the concentration at which the activity in the assay is half-maximal) on APOL1 G2 stood at 1.03 µM. The EC50 (commonly the concentration needed to bring the measured effect to its halfway point) in experiment [1] (setting [2]) was 0.0981 µM.

On to `NC1CN(C(=O)c2ccc(OCCN3CCC4(CC3)C(=O)Nc3ccc(Cl)cc34)cc2F)C1` [Compound 236, 1′-{2-[4-(3-aminoazetidine-1-carbonyl)-3-fluorophenoxy]ethyl}-5-chloro-1,2-dihydrospiro[indole-3,4′-piperidin]-2-one], for which, on APOL1 G2, the AC50 is 0.634 µM. Moreover, the EC50 in experiment [1] (setting [2]) was found to be 0.045 µM.

With `CN(C)C(=O)c1ccc(OCCN2CCC3(CC2)C(=O)Nc2ccc(Cl)cc23)cc1F` [Compound 230, 4-(2-{5-chloro-2-oxo-1,2-dihydrospiro[indole-3,4′-piperidin]-1′-yl}ethoxy)-2-fluoro-N,N-dimethylbenzamide], the half-maximal activity concentration (AC50) on APOL1 G2 was 0.891 µM. In addition, the EC50 in experiment [1] (setting [2]) turned out to be 0.0987 µM.

In the case of `CNC(=O)C1(c2ccc(OCCN3CCC4(CC3)C(=O)Nc3ccc(C#N)cc34)cc2)COC1` [Compound 255, 3-[4-(2-{5-cyano-2-oxo-1,2-dihydrospiro[indole-3,4′-piperidin]-1′-yl}ethoxy)phenyl]-N-methyloxetane-3-carboxamide], the concentration at half-maximal activity (AC50) on APOL1 G2 is 2.64 µM. Besides, in experiment [1] (setting [2]), the EC50 was 0.353 µM.

As to `O=C(c1ccc(OCCN2CCC3(CC2)C(=O)Nc2ccc(Cl)cc23)cc1F)N1CC(O)C1` [Compound 235, 5-chloro-1′-{2-[3-fluoro-4-(3-hydroxyazetidine-1-carbonyl)phenoxy]ethyl}-1,2-dihydrospiro[indole-3,4′-piperidin]-2-one], on APOL1 G2, the AC50 is 1 µM. The half-maximal effective concentration (EC50) in experiment [1] (setting [2]) was 0.0598 µM.

On to `CN1C(=O)C2(CCN(CCOc3ccc(C4(S(C)(=O)=O)CC(O)C4)cc3)CC2)c2cc(C(F)F)ccc21` (single isomer, unassigned) [Compound 278, 5-(difluoromethyl)-1-methyl-1′-(2-{4-[(cis) or (trans)-3-hydroxy-1-methanesulfonylcyclobutyl]phenoxy}ethyl)-1,2-dihydrospiro[indole-3,4′-piperidin]-2-one], for which the half-maximal activity concentration (AC50) at APOL1 G2 worked out at 0.769 µM. In addition, in experiment [1] (HEK293 overexpressing APOL1 G2), the concentration for a half-maximal effect (EC50) was found to be 0.023 µM.

On to `COCCN1C(=O)C2(CCN(CCOc3ccc(S(C)(=O)=O)cc3)CC2)c2cc(Cl)ccc21` [Compound 20, 5-chloro-1′-[2-(4-methanesulfonylphenoxy)ethyl]-1-(2-methoxyethyl)-1,2-dihydrospiro[indole-3,4′-piperidin]-2-one], for which the half-maximal activity concentration (AC50) on APOL1 G2 was 0.348 µM. For the same compound, the half-maximal effective concentration (EC50) in experiment [1] (setting [2]) was 0.294 µM.

Regarding `N#Cc1ccc2c(c1)C1(CCN(CCOc3ccc(C(N)=O)c(C(F)F)c3)CC1)C(=O)N2` [Compound 250, 4-(2-{5-cyano-2-oxo-1,2-dihydrospiro[indole-3,4′-piperidin]-1′-yl}ethoxy)-2-(difluoromethyl)benzamide], the concentration at half-maximal activity (AC50) at APOL1 G2 is 0.559 µM. Moreover, in experiment [1] (setting [2]), the EC50 came out at 0.0492 µM.

In the case of `CS(=O)(=O)c1ccc(OCCN2CCC3(CC2)C(=O)N(CCO)c2ccc(Cl)cc23)cc1` [Compound 18, 5-chloro-1-(2-hydroxyethyl)-1′-[2-(4-methanesulfonylphenoxy)ethyl]-1,2-dihydrospiro[indole-3,4′-piperidin]-2-one], the AC50 on APOL1 G2 worked out at 0.24 µM. Further, in experiment [1] (setting [2]), the EC50 worked out at 0.225 µM.

On to `O=C1Nc2ccc(Cl)cc2C12CCN(CCOc1ccc3c(c1)CCS3(=O)=O)CC2` [Compound 196, 5-(2-{5-chloro-2-oxo-1,2-dihydrospiro[indole-3,4′-piperidin]-1′-yl}ethoxy)-2,3-dihydro-1λ^6-benzothiophene-1,1-dione], for which the AC50 on APOL1 G2 was determined as 0.696 µM. For the same compound, the 50% effective concentration (EC50) in experiment [1] (setting [2]) came to 0.0919 µM.

Take `COCCN1C(=O)C2(CCN(CCOc3ccc(S(C)(=O)=O)cc3)CC2)c2cc(C#N)ccc21` [Compound 25, 1′-[2-(4-methanesulfonylphenoxy)ethyl]-1-(2-methoxyethyl)-2-oxo-1,2-dihydrospiro[indole-3,4′-piperidine]-5-carbonitrile]: at APOL1 G2, the AC50 is 0.651 µM. Also, in experiment [1] (setting [2]), the EC50 was 1.31 µM.

Turning to `CN1C(=O)C2(CCN(CCOc3cc(F)c(C(=O)N4CCS(=O)(=O)CC4)c(F)c3)CC2)c2cc(C#N)ccc21` [Compound 260, 1′-{2-[4-(1,1-dioxo-1λ^6-thiomorpholine-4-carbonyl)-3,5-difluorophenoxy]ethyl}-1-methyl-2-oxo-1,2-dihydrospiro[indole-3,4′-piperidine]-5-carbonitrile], the concentration at half-maximal activity (AC50) at APOL1 G2 was 1.38 µM. The half-maximal effective concentration (EC50) in experiment [1] (setting [2]) turned out to be 0.119 µM.

For the compound `CC(O)c1ncc(OCCN2CCC3(CC2)C(=O)Nc2ccc(C(F)F)cc23)cc1C(F)(F)F` (single isomer, unassigned) [Compound 288, 5-(difluoromethyl)-1′-[2-({6-[(1R) or (1S)-1-hydroxyethyl]-5-(trifluoromethyl)pyridin-3-yl}oxy)ethyl]-1,2-dihydrospiro[indole-3,4′-piperidin]-2-one], the AC50 on APOL1 G2 came to 0.369 µM. In experiment [1] (HEK293 overexpressing APOL1 G2), the 50% effective concentration (EC50) turned out to be 0.0341 µM.

`CN(C)C(=O)C1(S(=O)(=O)c2ccc(OCCN3CCC4(CC3)C(=O)Nc3ccc(Cl)cc34)cc2)CC1` [Compound 227, 1-[4-(2-{5-chloro-2-oxo-1,2-dihydrospiro[indole-3,4′-piperidin]-1′-yl}ethoxy)benzenesulfonyl]-N,N-dimethylcyclopropane-1-carboxamide]: at APOL1 G2, the concentration at half-maximal activity (AC50) was determined as 1.11 µM. The EC50 in experiment [1] (setting [2]) amounted to 0.047 µM.

For the compound `CC(O)c1ncc(OCCN2CCC3(CC2)C(=O)Nc2ccc(Cl)cc23)cn1` (single isomer, unassigned) [Compound 286, 5-chloro-1′-[2-({2-[(1R) or (1S)-1-hydroxyethyl]pyrimidin-5-yl}oxy)ethyl]-1,2-dihydrospiro[indole-3,4′-piperidin]-2-one], at APOL1 G2, the concentration at half-maximal activity (AC50) was 0.917 µM. Further, the EC50 in experiment [1] (HEK293 overexpressing APOL1 G2) worked out at 0.181 µM.

Regarding `O=C1Nc2ccc(Cl)cc2C12CCN(CCOc1ccc(S(=O)(=O)C3(C(=O)N4CCC4)CC3)cc1)CC2` [Compound 228, 1′-[2-(4-{[1-(azetidine-1-carbonyl)cyclopropyl]sulfonyl}phenoxy)ethyl]-5-chloro-1,2-dihydrospiro[indole-3,4′-piperidin]-2-one], the AC50 at APOL1 G2 is 1.2 µM. The EC50 in experiment [1] (setting [2]) is 0.101 µM.

For the compound `C[C@@H](COc1ccc(S(C)(=O)=O)c(C(F)F)c1)N1CCC2(CC1)C(=O)Nc1ccc(Cl)cc12` (single isomer, unassigned) [Compound 210], on APOL1 G2, the AC50 amounted to 1.54 µM. In experiment [1] (setting [2]), the concentration for a half-maximal effect (EC50) turned out to be 0.0633 µM.

On to `O=C1Nc2ccc(Cl)cc2C12CCN(CCOc1ccc(S(=O)(=O)CCO)cc1)CC2` [Compound 198, 5-chloro-1′-{2-[4-(2-hydroxyethanesulfonyl)phenoxy)ethyl}-1,2-dihydrospiro[indole-3,4′-piperidin]-2-one], for which, at APOL1 G2, the AC50 was 0.631 µM. Besides, the EC50 in experiment [1] (setting [2]) was 0.0631 µM.

In the case of `CS(=O)(=O)c1ccc(OCCN2CCC3(CC2)C(=O)Nc2ccc(C#N)cc23)cc1C(F)CF` (single isomer, unassigned) [Compound 221, 1′-(2-{3-[(1S or 1R)-1,2-difluoroethyl]-4-methanesulfonyl-phenoxy}ethyl)-2-oxo-1,2-dihydrospiro [indole-3,4′-piperidine]-5-carbonitrile], the AC50 at APOL1 G2 came out at 0.598 µM. In addition, the EC50 in experiment [1] (HEK293 overexpressing APOL1 G2) came out at 0.0474 µM.

With `C[C@]1(O)C[C@H](N2C(=O)CCc3cc(OCCN4CCC5(CC4)C(=O)Nc4ccc(Cl)cc45)cnc32)C1` (single isomer, unassigned) [Compound 307, 5-chloro-1′-[2-({7-oxo-8-[(trans)-3-hydroxy-3-methylcyclobutyl]-5,6,7,8-tetrahydro-1,8-naphthyridin-3-yl}oxy)ethyl]-1,2-dihydrospiro[indole-3,4′-piperidin]-2-one], the AC50 at APOL1 G2 was determined as 0.32 µM. Moreover, the EC50 in experiment [1] (setting [2]) worked out at 0.0204 µM.

As to `CS(=O)(=O)C1(c2ccc(OCCN3CCC4(CC3)C(=O)Nc3ccc(Cl)cc34)cc2)COC1` [Compound 195, 5-chloro-1′-{2-[4-(3-methanesulfonyloxetan-3-yl)phenoxy]ethyl}-1,2-dihydrospiro[indole-3,4′-piperidin]-2-one], the AC50 at APOL1 G2 came to 0.604 µM. The EC50 in experiment [1] (setting [2]) stood at 0.0394 µM.

Take `CNC(=O)C1(S(=O)(=O)c2ccc(OCCN3CCC4(CC3)C(=O)Nc3ccc(Cl)cc34)cc2)CC1` [Compound 226, 1-[4-(2-{5-chloro-2-oxo-1,2-dihydrospiro[indole-3,4′-piperidin]-1′-yl}ethoxy)benzenesulfonyl]-N-methylcyclopropane-1-carboxamide]: the half-maximal activity concentration (AC50) on APOL1 G2 amounted to 1.08 µM. For the same compound, in experiment [1] (setting [2]), the concentration giving a half-maximal response (EC50) worked out at 0.043 µM.

For the compound `CC(O)c1ncc(OCCN2CCC3(CC2)C(=O)Nc2ccc(Cl)cc23)cc1C(F)(F)F` (single isomer, unassigned) [Compound 292, 5-chloro-1′-[2-({6-[(1S) or (1R)-1-hydroxyethyl]-5-(trifluoromethyl)pyridin-3-yl}oxy)ethyl]-1,2-dihydrospiro[indole-3,4′-piperidin]-2-one], the AC50 at APOL1 G2 amounted to 1.3 µM. Besides, the EC50 in experiment [1] (HEK293 overexpressing APOL1 G2) stood at 0.0232 µM.

(Values after patent publication US12344610B2, “APOL1 inhibitors and methods of use” (Maze Therapeutics, Inc., priority 2022, dated 2025).)
